Test: Brain homogenate tissue binding and stability (RED device)
Assay type: in vitro ADME, mouse
Details: C57BL/6, mouse, brain homogenate (4 times diluted), pH 7.4, mouse brain tissue binding (free fraction in brain); read-out: % Unbound
Method: Carbamazepine (Apin Chemicals) served as a positive control for brain tissue binding. Test compounds and the positive control were initially dissolved in DMSO to make 1 mM stock solutions. […] A rapid equilibrium dialysis (RED) device (Thermo Scientific) containing a dialysis membrane with a molecular weight cutoff of 8000 Da was used to assess tissue binding and metabolic stability. […] The test compounds and positive control (200 μL of 5 μM solution) were added to the red chamber of the dialysis insert, while the white chamber was filled with dialysis buffer (350 μL). The RED device was then sealed with an adhesive film and incubated at 37 °C with shaking (300 rpm) for 4 h. For the initial time point (t = 0 min), 50 μL aliquots of test compounds and the positive control were added to 96-deep well plates (0.7 mL per well) and quenched with 400 μL of MeCN. Following dialysis, another 50 μL aliquot of the tested samples was removed from each well (brain homogenate and buffer) and diluted with an equal volume of the opposite matrix to nullify any matrix effects. […] The supernatant (100 μL) was subsequently transferred to 96-deep well plates for LC-MS/MS analysis. Prodrug metabolism and 2i concentrations were determined by fit-for-purpose LC-MS/MS methods on a nine-point calibration curve ranging from 0.12 to 7.5 μM.

SMILES	fraction unbound at 4 h, 5 µM
O=C(O)CC(F)(F)C(=O)N1N=C(c2c(-c3ccc(Cl)cc3)c3ccccc3[nH]c2=O)CC1c1ccc(Cl)cc1 (centres unmarked) [2i]	< 0.001
CN(C)C(=O)CC(F)(F)C(=O)N1N=C(c2c(-c3ccc(Cl)cc3)c3ccccc3[nH]c2=O)CC1c1ccc(Cl)cc1 (centres unmarked) [2r]	< 0.001
O=C(O)CCC(=O)N1N=C(c2c(-c3ccc(Cl)cc3)c3ccccc3[nH]c2=O)CC1c1ccc(Cl)cc1 (centres unmarked) [2a]	0.002

Same assay, conditions: C57BL/6, mouse, brain homogenate (4 times diluted), pH 7.4, mouse brain tissue binding, RED, 4 h; read-out: % Bound Mean ± SD (converted)

SMILES	fraction unbound at 4 h, 5 µM
O=C(O)CC(F)(F)C(=O)N1N=C(c2c(-c3ccc(Cl)cc3)c3ccccc3[nH]c2=O)CC1c1ccc(Cl)cc1 (centres unmarked) [2i]	< 0.001
CN(C)C(=O)CC(F)(F)C(=O)N1N=C(c2c(-c3ccc(Cl)cc3)c3ccccc3[nH]c2=O)CC1c1ccc(Cl)cc1 (centres unmarked) [2r]	< 0.001
O=C(O)CCC(=O)N1N=C(c2c(-c3ccc(Cl)cc3)c3ccccc3[nH]c2=O)CC1c1ccc(Cl)cc1 (centres unmarked) [2a]	0.002

Same assay, conditions: C57BL/6, mouse, brain homogenate (4 times diluted), pH 7.4, mouse brain tissue binding, RED, 4 h; read-out: % Bound R1 (converted)

SMILES	fraction unbound at 4 h, 5 µM
O=C(O)CC(F)(F)C(=O)N1N=C(c2c(-c3ccc(Cl)cc3)c3ccccc3[nH]c2=O)CC1c1ccc(Cl)cc1 (centres unmarked) [2i]	< 0.001
CN(C)C(=O)CC(F)(F)C(=O)N1N=C(c2c(-c3ccc(Cl)cc3)c3ccccc3[nH]c2=O)CC1c1ccc(Cl)cc1 (centres unmarked) [2r]	< 0.001
O=C(O)CCC(=O)N1N=C(c2c(-c3ccc(Cl)cc3)c3ccccc3[nH]c2=O)CC1c1ccc(Cl)cc1 (centres unmarked) [2a]	0.001

Same assay, conditions: C57BL/6, mouse, brain homogenate (4 times diluted), pH 7.4, mouse brain tissue binding, RED, 4 h; read-out: % Bound R2 (converted)

SMILES	fraction unbound at 4 h, 5 µM
O=C(O)CC(F)(F)C(=O)N1N=C(c2c(-c3ccc(Cl)cc3)c3ccccc3[nH]c2=O)CC1c1ccc(Cl)cc1 (centres unmarked) [2i]	< 0.001
CN(C)C(=O)CC(F)(F)C(=O)N1N=C(c2c(-c3ccc(Cl)cc3)c3ccccc3[nH]c2=O)CC1c1ccc(Cl)cc1 (centres unmarked) [2r]	< 0.001
O=C(O)CCC(=O)N1N=C(c2c(-c3ccc(Cl)cc3)c3ccccc3[nH]c2=O)CC1c1ccc(Cl)cc1 (centres unmarked) [2a]	0.002

Same assay, conditions: C57BL/6, mouse, brain homogenate (4 times diluted), pH 7.4, mouse brain tissue binding; read-out: fu

SMILES	fraction unbound at 4 h, 5 µM
O=C(O)CCC(=O)N1N=C(c2c(-c3ccc(Cl)cc3)c3ccccc3[nH]c2=O)CC1c1ccc(Cl)cc1 (centres unmarked) [2a]	0.002

Same assay, conditions: C57BL/6, mouse, brain homogenate (4 times diluted), pH 7.4; starting concentration 5 μM; 4 h

SMILES	remaining at 4 h, 5 µM
O=C(CC(F)(F)C(=O)N1N=C(c2c(-c3ccc(Cl)cc3)c3ccccc3[nH]c2=O)CC1c1ccc(Cl)cc1)OCC1CC1 (centres unmarked) [2n]	25%
CC(C)(C)COC(=O)CC(F)(F)C(=O)N1N=C(c2c(-c3ccc(Cl)cc3)c3ccccc3[nH]c2=O)CC1c1ccc(Cl)cc1 (centres unmarked) [2o]	53%
O=C(O)CC(F)(F)C(=O)N1N=C(c2c(-c3ccc(Cl)cc3)c3ccccc3[nH]c2=O)CC1c1ccc(Cl)cc1 (centres unmarked) [2i]	105%
CN(C)C(=O)CC(F)(F)C(=O)N1N=C(c2c(-c3ccc(Cl)cc3)c3ccccc3[nH]c2=O)CC1c1ccc(Cl)cc1 (centres unmarked) [2r]	93%
O=C(O)CCC(=O)N1N=C(c2c(-c3ccc(Cl)cc3)c3ccccc3[nH]c2=O)CC1c1ccc(Cl)cc1 (centres unmarked) [2a]	94%

Same assay, conditions: C57BL/6, pH 7.4; mouse brain tissue binding, RED, 4 h

SMILES	recovery at 4 h, 5 μM
O=C(CC(F)(F)C(=O)N1N=C(c2c(-c3ccc(Cl)cc3)c3ccccc3[nH]c2=O)CC1c1ccc(Cl)cc1)OCC1CC1 (centres unmarked) [2n]	29%
CC(C)(C)COC(=O)CC(F)(F)C(=O)N1N=C(c2c(-c3ccc(Cl)cc3)c3ccccc3[nH]c2=O)CC1c1ccc(Cl)cc1 (centres unmarked) [2o]	44%
O=C(O)CC(F)(F)C(=O)N1N=C(c2c(-c3ccc(Cl)cc3)c3ccccc3[nH]c2=O)CC1c1ccc(Cl)cc1 (centres unmarked) [2i]	57%
CN(C)C(=O)CC(F)(F)C(=O)N1N=C(c2c(-c3ccc(Cl)cc3)c3ccccc3[nH]c2=O)CC1c1ccc(Cl)cc1 (centres unmarked) [2r]	90%
O=C(O)CCC(=O)N1N=C(c2c(-c3ccc(Cl)cc3)c3ccccc3[nH]c2=O)CC1c1ccc(Cl)cc1 (centres unmarked) [2a]	100%

Same assay, conditions: brain homogenate chamber after 4 h dialysis

SMILES	Average 2i Concentration, Brain_Mice
CN(C)C(=O)CC(F)(F)C(=O)N1N=C(c2c(-c3ccc(Cl)cc3)c3ccccc3[nH]c2=O)CC1c1ccc(Cl)cc1 (centres unmarked) [2r]	BLQ

Same assay, conditions: brain homogenate stability sample, 0 h

SMILES	Average 2i Concentration, Brain_St_0Hr_Mice
O=C(CC(F)(F)C(=O)N1N=C(c2c(-c3ccc(Cl)cc3)c3ccccc3[nH]c2=O)CC1c1ccc(Cl)cc1)OCC1CC1 (centres unmarked) [2n]	BLQ
CC(C)(C)COC(=O)CC(F)(F)C(=O)N1N=C(c2c(-c3ccc(Cl)cc3)c3ccccc3[nH]c2=O)CC1c1ccc(Cl)cc1 (centres unmarked) [2o]	BLQ
CN(C)C(=O)CC(F)(F)C(=O)N1N=C(c2c(-c3ccc(Cl)cc3)c3ccccc3[nH]c2=O)CC1c1ccc(Cl)cc1 (centres unmarked) [2r]	BLQ

Same assay, conditions: brain homogenate stability sample, 4 h

SMILES	Average 2i Concentration, Brain_St_4Hr_Mice
CN(C)C(=O)CC(F)(F)C(=O)N1N=C(c2c(-c3ccc(Cl)cc3)c3ccccc3[nH]c2=O)CC1c1ccc(Cl)cc1 (centres unmarked) [2r]	BLQ

Same assay, conditions: buffer chamber after 4 h dialysis

SMILES	Average 2i Concentration, Buffer_Mice
O=C(CC(F)(F)C(=O)N1N=C(c2c(-c3ccc(Cl)cc3)c3ccccc3[nH]c2=O)CC1c1ccc(Cl)cc1)OCC1CC1 (centres unmarked) [2n]	BLQ
CC(C)(C)COC(=O)CC(F)(F)C(=O)N1N=C(c2c(-c3ccc(Cl)cc3)c3ccccc3[nH]c2=O)CC1c1ccc(Cl)cc1 (centres unmarked) [2o]	BLQ
CN(C)C(=O)CC(F)(F)C(=O)N1N=C(c2c(-c3ccc(Cl)cc3)c3ccccc3[nH]c2=O)CC1c1ccc(Cl)cc1 (centres unmarked) [2r]	BLQ

Test: Plasma stability, human
Assay type: in vitro ADME
Details: both sexes, human plasma, incubation up to 120 min, 3 μM, read-out: plasma stability T1/2, human
Method: Human plasma (lithium heparin (LiHep) mixed, gender pooled, 0.2 μm filtered) and mouse plasma (BALB/C, LiHep mixed, male pooled, 0.2 μm filtered) were purchased from BioIVT. Procaine (Sigma-Aldrich) served as a positive control for both human and mouse plasma experiments. Test compounds and positive controls were initially dissolved in DMSO to make 10 mM stock solutions. The solutions of test and control compounds were then further diluted in 70% MeOH/H2O or 100% MeCN to 500 μM. Next, the human or mouse plasma (994 μL) was aliquoted into 1.5 mL Eppendorf tubes with duplicates (reactions A and B) being prepared for each compound. The plasma was then incubated at 37 °C for 10 min. Afterward, the reaction was initiated by the addition of the test compound (6 μL of 500 μM solution) and further incubated at 37 °C for the designated time course of the study. This procedure provided duplicate experiments with a final volume of 1000 μL (<0.6% organic solvent content) and a final test compound concentration of 3 μM. Aliquots (100 μL) were removed from each reaction mixture at 0, 15, 30, 60, and 120 min time intervals and quenched with 150 μL of cold ISTD solution (2 μM 7-ethoxy-d5-coumarin in MeOH or MeCN). Quenched aliquots were then centrifuged at 15,000 g for 30–45 min, and the resulting supernatants (∼70 μL) were withdrawn and placed in LC-MS vials to be analyzed by LC-MS/MS (Agilent G6460C QQQ MS coupled with an Infinity II 1260 HPLC). Each test compound was run in tandem with positive and negative control experiments for quality assurance. The positive control reaction was conducted at a final volume of 1000 μL for a single run at each time point. Finally, the negative control experiment was conducted with test compounds in DPBS (143 μL) and analyzed at the 120 min time point.
For both LM and plasma assays, each data point was analyzed in triplicate using between blank washes to avoid carry over and to equilibrate the column for the subsequent runs. Averages of these triplicates for individual compounds at each time point were then normalized to the data at 0 min, representing 100% of the test compound remaining or 0% metabolism. Half-lives (t1/2) were calculated by plotting ln of % test compound remaining versus time and performing linear regression to determine slope. Slope = −k and t1/2 = 0.693/k for first-order kinetics (see Figures S5 and S6 for a representative example).

SMILES	half-life at 3 μM
O=C(CC(F)(F)C(=O)N1N=C(c2c(-c3ccc(Cl)cc3)c3ccccc3[nH]c2=O)CC1c1ccc(Cl)cc1)OCC1CC1 (centres unmarked) [2n]	> 2 h
CC(C)(C)COC(=O)CC(F)(F)C(=O)N1N=C(c2c(-c3ccc(Cl)cc3)c3ccccc3[nH]c2=O)CC1c1ccc(Cl)cc1 (centres unmarked) [2o]	> 2 h
O=C(O)CC(F)(F)C(=O)N1N=C(c2c(-c3ccc(Cl)cc3)c3ccccc3[nH]c2=O)CC1c1ccc(Cl)cc1 (centres unmarked) [2i]	> 2 h
CN(C)C(=O)CC(F)(F)C(=O)N1N=C(c2c(-c3ccc(Cl)cc3)c3ccccc3[nH]c2=O)CC1c1ccc(Cl)cc1 (centres unmarked) [2r]	> 2 h
O=C(O)CCC(=O)N1N=C(c2c(-c3ccc(Cl)cc3)c3ccccc3[nH]c2=O)CC1c1ccc(Cl)cc1 (centres unmarked) [2a]	> 2 h

Same assay, conditions: both sexes, plasma, over the assay time course

SMILES	remaining at 120 min, 3 µM
O=C(O)CC(F)(F)C(=O)N1N=C(c2c(-c3ccc(Cl)cc3)c3ccccc3[nH]c2=O)CC1c1ccc(Cl)cc1 (centres unmarked) [2i]	> 95%
O=C(O)CCC(=O)N1N=C(c2c(-c3ccc(Cl)cc3)c3ccccc3[nH]c2=O)CC1c1ccc(Cl)cc1 (centres unmarked) [2a]	> 95%

Source: article PMC10485906, “Development of a Dihydroquinoline–Pyrazoline GluN2C/2D-Selective Negative Allosteric Modulator of the N-Methyl-D-aspartate Receptor” (ACS Chemical Neuroscience, 2023)
